One compound from ChEMBL document CHEMBL3272065 (J Med Chem, 1977) can be followed below.

The nature of data set [1]: Hydrolysis of the compound at pH 7.4 at 37 degC assessed as first-order rate coefficient at 3.4 x 10' -3 M. The following applies: buffer, pH 7.4, 3400 µM. Format: physicochemical.
Data set [2] in a line: Half life of the compound at pH 7.4 at 37 degC at 3.4 x 10' -3 M. It counts as physicochemical.

As for `O=[N+]([O-])c1cc([N+](=O)[O-])c(NCCCSCCCl)c(S(=O)(=O)O)c1`, in data set [1], the K is 2 ×10⁻³ /s. The half-life at 3400 µM in data set [2] is 5.83 min.

Usually half-life stands for how long it takes for the measured level to halve.
